One experiment has as its system HCMV (strain AD169). The experiment is described as follows: Plaque reduction assay in HFF cells infected with HCMV strain AD169. Particulars: Human betaherpesvirus 5, 216 h, plaque count after 9 days, read-out: EC50, compound tested separately. The experiment is classed as cell-based, human cytomegalovirus. On the procedure:
We examined the in vitro anti-HCMV (strain AD169; ATCC #VR-538) activity of filociclovir and letermovir both separately and as triplicate combinations at a concentration range of 0.0064-100 μM, and 0.0064-100 nM, respectively.
Monolayers of human foreskin fibroblasts (HFF cells; ATCC #SCRC-1041) were grown in 1 ml of DMEM (Corning #10-013-CM) containing 10% heat-inactivated fetal bovine serum (Gibco #A38402-01) and 1% penicillin-streptomycin solution (Hyclone #SV30010) in 24-well plates and infected with 100 plaque forming units (PFUs) of HCMV. Following incubation for 1 hr at 37° C., the virus was aspirated and replaced with MEM (Corning #50-010-PB) containing 1% methyl cellulose (Sigma #M-0521) and the various concentrations of filociclovir and letermovir were added as set forth above. A set of wells, designated as non-treated controls, received neither of the two compounds.
Infected plates were incubated for 9 days at 37° C., then fixed and stained with crystal violet stain (0.1% in 20% methanol). The number of plaques in each well was counted and the level of synergism was assessed using MacSynergy™ II (Prichard and Shipman 1990, supra), which provides an overall evaluation of the deviation from the theoretical additive effect of both drugs based on individual dose-response curves.
In general terms: Plaques are areas of infected cells; plaque reduction assays count them against a control.

For a further experiment, the system named is HCMV. Particulars: literature statement; cited from earlier work.
For experiment [1], the system named is HCMV control strain UL56 wt. The experiment is described as follows: SEAP reporter susceptibility assay in ARPEp cells, baseline strain. The experiment is classed as cell-based, human cytomegalovirus. Particulars: Human betaherpesvirus 5, 144 h, read-out: Mean EC50. The source says:
(§1) These UL56 amino acid substitutions were introduced into the bacterial artificial chromosome (BAC) clone BD2 of HCMV laboratory strain AD169 modified with a secreted alkaline phosphatase (SEAP) reporter gene, as previously described (Chou, S., Antimicrob. Agents Chemother., 59: 6588-6593 (2015)). The mutagenized BAC clones were transfected into modified retinal epithelial (ARPEp) cells and the recovered infectious recombinant viruses were then genotyped and phenotyped as previously described (Chou et al., Antimicrob. Agents Chemother., 62(9): e00922-18 (2018)).
(§2) Control strains included a baseline strain of wild-type UL56 and a UL97 M460V mutant that is resistant to […]. For susceptibility assays, calibrated viral inocula were added to 24-well plate cultures of ARPEp cells and incubated under a series of filociclovir concentrations, and the concentrations required to reduce SEAP activity by 50% (EC50) at 6 days were determined in duplicate assays on each of 3 to 5 setup dates.

In a further experiment the test system is HCMV UL97 M460V mutant. The experiment is described as follows: SEAP reporter susceptibility assay in ARPEp cells, UL97 M460V. The experiment is classed as cell-based, human cytomegalovirus.
Text: as §1, §2

A further experiment has as its system HCMV UL56 mutant V231L. Description: SEAP reporter susceptibility assay in ARPEp cells, UL56 V231L. In kind it is cell-based, human cytomegalovirus.
Text: (§3) In order to test the effect of filociclovir on letermovir-resistant strains, we used 4 HCMV UL56 mutants encountered in clinical practice: V231L, V236M, C325F and C325Y, the latter 2 of which commonly emerged to confer absolute letermovir resistance (Grantham et al., Biol. Blood Marrow Transplant. 25: S344-S345 (2019); Turner et al., Antimicrob. Agents Chemother., 63(3): e02337-18 (2019)).
as §1, §2

Another experiment deals with HCMV UL56 mutant V236M. The experiment is described as follows: SEAP reporter susceptibility assay in ARPEp cells, UL56 V236M. In kind it is cell-based, human cytomegalovirus.
Text: as §3, §1, §2

Another experiment relates to HCMV UL56 mutant C325F. The experiment is described as follows: SEAP reporter susceptibility assay in ARPEp cells, UL56 C325F. In kind it is cell-based, human cytomegalovirus.
Text: as §3, §1, §2

Another experiment concerns HCMV UL56 mutant C325Y. Description: SEAP reporter susceptibility assay in ARPEp cells, UL56 C325Y. The experiment is classed as cell-based, human cytomegalovirus.
Text: as §3, §1, §2

Experiment [2] deals with HCMV UL56 mutants (V231L, V236M, C325F, C325Y). The experiment is described as follows: SEAP reporter susceptibility assay in ARPEp cells, UL56 mutants as a group. In kind it is cell-based, human cytomegalovirus. To be noted: Human betaherpesvirus 5, read-out: mean EC50 values against the UL56 mutants tested.
Text: as §3, §1, §2

Another experiment concerns the target HCMV DNA polymerase UL54 (Human cytomegalovirus, UniProt P08546). To be noted: higher than GCV-TP; cited from earlier work.
The mark [3] stands for this setting: Human betaherpesvirus 5, 144 h, read-out: Mean EC50.

Sequence of HCMV DNA polymerase UL54 (P08546 whole entry): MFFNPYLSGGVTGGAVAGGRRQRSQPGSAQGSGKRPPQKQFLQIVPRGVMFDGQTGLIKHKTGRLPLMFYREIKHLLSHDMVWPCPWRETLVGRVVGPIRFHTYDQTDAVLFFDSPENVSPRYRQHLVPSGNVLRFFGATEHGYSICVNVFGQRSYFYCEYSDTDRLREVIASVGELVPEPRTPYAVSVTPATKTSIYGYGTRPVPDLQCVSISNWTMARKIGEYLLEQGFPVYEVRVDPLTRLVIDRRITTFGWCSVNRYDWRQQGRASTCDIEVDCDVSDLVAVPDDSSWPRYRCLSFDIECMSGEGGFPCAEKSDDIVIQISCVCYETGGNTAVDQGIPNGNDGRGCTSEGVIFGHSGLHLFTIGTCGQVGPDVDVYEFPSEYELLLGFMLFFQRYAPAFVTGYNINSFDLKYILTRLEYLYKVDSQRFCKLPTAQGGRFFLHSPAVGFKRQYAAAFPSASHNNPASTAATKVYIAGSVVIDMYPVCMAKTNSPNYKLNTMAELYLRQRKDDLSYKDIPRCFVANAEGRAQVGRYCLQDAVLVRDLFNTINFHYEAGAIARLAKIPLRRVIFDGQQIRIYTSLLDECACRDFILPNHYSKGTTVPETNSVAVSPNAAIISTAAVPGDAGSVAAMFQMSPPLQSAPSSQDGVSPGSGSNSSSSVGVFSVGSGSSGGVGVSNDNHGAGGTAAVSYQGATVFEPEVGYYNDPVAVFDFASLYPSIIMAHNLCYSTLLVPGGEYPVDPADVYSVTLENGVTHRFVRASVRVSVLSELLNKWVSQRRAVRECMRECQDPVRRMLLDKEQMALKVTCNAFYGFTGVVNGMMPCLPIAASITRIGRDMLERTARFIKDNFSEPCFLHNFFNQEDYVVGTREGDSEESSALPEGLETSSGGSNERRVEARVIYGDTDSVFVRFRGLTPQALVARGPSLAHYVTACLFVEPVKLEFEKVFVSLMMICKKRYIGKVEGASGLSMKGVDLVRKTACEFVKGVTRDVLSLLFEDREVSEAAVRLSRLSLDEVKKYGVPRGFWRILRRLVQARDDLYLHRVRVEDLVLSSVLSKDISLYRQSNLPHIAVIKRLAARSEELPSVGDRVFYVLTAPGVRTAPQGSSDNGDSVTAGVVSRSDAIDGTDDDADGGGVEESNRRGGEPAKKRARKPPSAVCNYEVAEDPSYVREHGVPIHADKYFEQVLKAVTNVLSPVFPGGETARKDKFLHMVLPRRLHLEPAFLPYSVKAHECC

Turning to `COc1cccc(N2CCN(C3=Nc4c(F)cccc4[C@H](CC(=O)O)N3c3cc(C(F)(F)F)ccc3OC)CC2)c1` [letermovir, 2-[(4S)-8-fluoro-2-[4-(3-methoxyphenyl)piperazin-1-yl]-3-[2-methoxy-5-(trifluoromethyl)phenyl]-4H-quinazolin-4-yl]acetic acid, reference compound], in the experiment with HCMV (strain AD169), the EC50 (in general, the concentration giving half of the maximal effect) came out at 3 nM. In addition, in the experiment on HCMV, the EC50 values entry is “nanomolar range”.

As for `Nc1nc2c(ncn2/C=C2/CC2(CO)CO)c(=O)[nH]1` [Filociclovir, (Z)-9-{[2,2-bis-(hydroxymethyl)cyclopropylidene]methyl}guanine], the EC50 in the experiment with HCMV (strain AD169) came to 550 nM; in experiment [1], 430 nM; in the experiment on HCMV UL97 M460V mutant (setting [3]) it was 2030 nM; in the experiment with HCMV UL56 mutant V231L (setting [3]), 290 nM; with HCMV UL56 mutant V236M (setting [3]) it was 350 nM; in the experiment on HCMV UL56 mutant C325F (setting [3]) it was 350 nM. The EC50 is 380 nM in the experiment with HCMV UL56 mutant C325Y (setting [3]) and 290 to 380 nM in [2]. In addition, the “Ratio = EC50 of mutant/EC50 of wild type control” value in the experiment on HCMV UL97 M460V mutant (UL97 M460V) worked out at 4.8; in the experiment with HCMV UL56 mutant V231L (UL56 V231L), 0.69; in the experiment with HCMV UL56 mutant V236M (UL56 V236M) it was 0.81; in the experiment on HCMV UL56 mutant C325F (UL56 C325F), 0.82; with HCMV UL56 mutant C325Y (UL56 C325Y) it was 0.89.

As to `Nc1nc2c(ncn2/C=C2/CC2(CO)COP(=O)(O)OP(=O)(O)OP(=O)(O)O)c(=O)[nH]1` (stereo not shown) [FCV-TP, FCV triphosphate], on HCMV DNA polymerase UL54, the “affinity to HCMV DNA polymerase UL54 relative to GCV-TP” value is “about 10 fold”.

The values are drawn from patent US20220152028A1, “COMBINATION DRUG TREATMENT FOR HUMAN CYTOMEGALOVIRUS” (Microbiotix, Inc., priority 2019, published 2022).
